Measured values: article PMC6588349 (eLife, 2019)
“Also recorded” adds a separate entry of the source. Like-named read-outs stand apart in the source and are kept apart here.

What was measured:
[1] = target: T1, SNAP-mGluR2 (full-length) (Rattus norvegicus, UniProt P31421); assay: Inter-LBD FRET assay with full-length SNAP-mGluR2; type: cell-based; conditions: saturating concentrations; for direct effect on inter-LBD FRET (no orthosteric agonist for modulators): drug applied alone; for effect on inter-LBD FRET response to DCG-IV: agonist DCG-IV
T1 construct: HEK 293T cells expressing full-length mGluR2; expressed in transfected cells; host or cells: HEK 293T
Source text: We next sought to further probe the variation in PAM-induced inter-TMD FRET changes. […] We used an inter-LBD FRET assay to assess the relative strength of allosteric modulation by different mGluR2 PAMs. Agonists induce a decrease in FRET between fluorophore-conjugated N-terminal SNAP- and CLIP-tags (Figure 4E). […] We tested this effect for all PAMs by applying a saturating concentration of DCG-IV followed by co-application of a saturating concentration of each PAM, which produced further FRET decreases (Figure 4F,G).
(§1) Fluorophores were diluted in EX solution, which was also used to wash coverslips following labeling and prior to mounting on the microscope. After labeling, cells were mounted on an inverted microscope (Olympus IX73) and imaged with a 60x objective. […] Clusters of cells were analyzed together using ImageJ and FRET was calculated as FRET=(IAcceptor)/(IDonor +IAcceptor) where I is fluorescence intensity. No corrections were made for bleed-through between channels or the contribution of donor-donor or acceptor-acceptor dimers as analysis was limited to relative FRET changes between drug treatments rather than absolute FRET values. […] FRET changes calculated for dose–response curves were normalized to the response to saturating […] applied within the same recording and dose–response curves were obtained from multiple cell clusters and averaged from at least three separate experiments. Dose–response curves were fit using Prism (Graphpad). All drugs were purchased from Tocris, prepared in EX solution, and delivered with a gravity-driven perfusion system. For kinetics measurements a pressurized perfusion system (Automate Scientific) was used to produce a flow rate of 0.5 mL/s. Kinetic analysis was performed in Microsoft Excel. The time between 10% and 90% FRET increase or decrease was determined manually. For photo-bleaching/donor-recovery experiments, images were taken in donor and acceptor channels at baseline and again followed by a 1 min exposure to 640 nm laser illumination at maximum intensity. All experiments were performed at room temperature. All data were produced from at least two separate transfections for each condition.

[2] = target: T2, SNAP-mGluR2-TMD (Rattus norvegicus, UniProt P31421); assay: Single-molecule pulldown (SiMPull) photobleaching step counting, SNAP-mGluR2-TMD; conditions: 10 µM LY48, 1 µM BINA, 10 µM Ro 64, 1 µM MNI 137
T2 construct: mGluR2-TMD (rat) starts at Q558; expressed in transfected cells; host or cells: HEK 293T
Source text: Photobleaching step analysis of individual complexes allows for precise determination of receptor stoichiometry and, unlike FRET or BRET-based methods, this assay is not sensitive to conformation or relative fluorophore orientation. […] However, this work relied on GFP-tagged receptors which leads to a lysate that contains both surface-targeted and intracellular receptors, potentially including immature or partially degraded protein that can confound analysis.
To restrict our analysis to surface-targeted receptors, we expressed N-terminally SNAP-tagged receptor variants and labeled them with membrane-impermeable fluorophores.
To test this, we incubated SNAP-mGluR2-TMD expressing cells and lysates with PAMs or NAMs during the SiMPull experiment.
Briefly, to prevent non-specific sticking of proteins, flow chambers were prepared with mPEG-passivated glass slides and coverslips doped with ~1% biotinylated mPEG, as previously described. Prior to each experiment, chambers were incubated with 0.2 mg/mL NeutrAvidin (ThermoFisher) for 2 min followed by 10 nM of a biotinylated anti-HA antibody (abcam ab26228) for 20–30 min. After each conjugation step, the chambers were washed with T50 buffer (50 mM NaCl, 10 mM Tris, pH 7.5).
After labeling, cells were dissociated from coverslips by incubating with Ca^2+-free PBS for 20 min followed by gentle pipetting. […] Following 1 hr of lysis at 4°C, cells were centrifuged at 16,000 g for 20 min before the supernatant was collected and maintained on ice. The cell lysate was diluted in a 0.1% detergent dilution buffer to obtain sparse immobilization of labeled protein on the passivated slide. After obtaining an optimal density of immobilized protein, the flow chamber was washed with dilution buffer to remove unbound protein. For SiMPull experiments with PAMs and NAMs, drugs were added to cells during the dissociation step (after dye labeling), and maintained throughout the cell lysis and entire experiment.
Single molecules were imaged with a 100x objective on an inverted microscope (Olympus IX73) in total internal reflection fluorescence (TIRF) mode. Images were taken with an scMOS camera (Hamamatsu ORCA-Flash4v3.0) at 20 Hz with 50 ms exposures. […] Multiple independent experiments were performed for each condition. […] A SNAP-tag labeling efficiency of ~80% was used to calculate the proportion of dimers and monomers. Occasional co-localization of two proteins within a diffraction limited spot along with antibody and NeutrAvidin bivalency both make a small contribution to >1 step photobleaching, leading to a background % two-step bleaching level of ~5–10%. All data were produced from at least two separate transfections/protein preparations for each condition.

[3] = target: T2, SNAP-mGluR2-TMD; assay: Inter-TMD FRET assay in living HEK 293T cells; type: cell-based; conditions: for EC50: normalized to saturating LY48; for inter-TMD FRET response to drug alone: drug applied alone, XA up to 50 µM
Source text: We therefore sought to develop a FRET sensor that reports on activation-associated motions driven by allosteric drugs and hypothesized that an N-terminal fluorophore on the isolated TMD should report on any inter-TMD rearrangement while allowing the receptor to maintain G-protein coupling (Figure 3A). […] To test if LBD-independent inter-TMD rearrangement is a feature of other mGluRs, we asked if donor and acceptor conjugation to SNAP-mGluR5-TMD would allow for the detection a FRET response to a PAM.
Cells were cultured in DMEM with 5% FBS on poly-L-lysine-coated glass coverslips. DNA plasmids were transfected into cells using Lipofectamine 3000 (Thermo Fisher). […] For single-molecule pulldown (SiMPull) experiments, cells were transfected with 0.7 μg DNA of HA and SNAP-tagged receptor constructs, unless otherwise noted. For FRET experiments, cells were transfected with either SNAP-tagged constructs at 0.5–0.7 μg of DNA/well or SNAP and CLIP-tagged constructs at a ratio of 1:2 with 0.3 μg of SNAP DNA/well.
as §1

[4] = SNAP-mGluR2-TMD labeled with donor and acceptor, mean ± s.e.m., read-out: inter-TMD FRET increase EC50

T1 sequence (P31421 19-872): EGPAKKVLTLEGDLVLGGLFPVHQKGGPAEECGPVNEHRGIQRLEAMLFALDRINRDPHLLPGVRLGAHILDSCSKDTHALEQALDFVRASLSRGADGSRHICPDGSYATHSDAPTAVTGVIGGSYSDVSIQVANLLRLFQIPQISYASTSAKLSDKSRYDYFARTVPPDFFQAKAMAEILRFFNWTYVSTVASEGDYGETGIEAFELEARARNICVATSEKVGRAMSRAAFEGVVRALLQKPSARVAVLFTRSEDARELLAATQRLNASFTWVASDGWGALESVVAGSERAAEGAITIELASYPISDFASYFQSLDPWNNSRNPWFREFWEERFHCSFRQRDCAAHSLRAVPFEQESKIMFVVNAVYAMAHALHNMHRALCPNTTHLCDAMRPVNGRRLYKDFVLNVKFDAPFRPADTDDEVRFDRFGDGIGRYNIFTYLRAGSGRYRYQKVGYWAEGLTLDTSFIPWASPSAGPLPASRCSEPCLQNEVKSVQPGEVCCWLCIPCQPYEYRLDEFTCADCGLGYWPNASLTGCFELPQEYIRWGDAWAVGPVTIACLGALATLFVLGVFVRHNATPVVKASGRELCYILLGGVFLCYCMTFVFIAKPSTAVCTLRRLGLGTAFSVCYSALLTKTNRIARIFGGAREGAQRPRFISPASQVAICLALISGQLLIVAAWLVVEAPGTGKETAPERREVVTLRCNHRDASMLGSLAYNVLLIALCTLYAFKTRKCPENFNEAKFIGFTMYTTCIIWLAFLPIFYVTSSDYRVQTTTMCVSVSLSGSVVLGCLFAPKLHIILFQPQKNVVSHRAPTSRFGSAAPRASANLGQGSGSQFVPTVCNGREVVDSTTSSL
T2 sequence (P31421 558-872 limits assumed): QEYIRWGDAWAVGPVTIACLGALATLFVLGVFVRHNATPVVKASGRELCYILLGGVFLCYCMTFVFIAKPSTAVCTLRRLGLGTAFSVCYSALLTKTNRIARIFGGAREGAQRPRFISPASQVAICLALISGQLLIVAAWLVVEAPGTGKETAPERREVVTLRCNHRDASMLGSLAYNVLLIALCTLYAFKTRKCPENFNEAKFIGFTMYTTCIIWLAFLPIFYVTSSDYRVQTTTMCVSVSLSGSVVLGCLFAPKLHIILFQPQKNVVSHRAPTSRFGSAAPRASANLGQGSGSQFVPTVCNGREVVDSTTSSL

| direct effect on inter-LBD FRET (no orthosteric agonist for modulators) [1] | higher order complexes with >3 bleaching steps in presence of drug [2] | two-step photobleaching events of SNAP-mGluR2-TMD in presence of drug [2] | EC50 ([3]; SNAP- and CLIP-mGluR2-TMD co-expressed, read-out: inter-TMD FRET increase EC50, co-expression of SNAP- and CLIP-mGluR2-TMD) | EC50 [3, 4] | EC50 ([3]; co-expression of dominant negative Gα protein, read-out: inter-TMD FRET increase EC50 with dominant negative G protein) | inter-TMD FRET response to drug alone [3] | inter-TMD FRET response onset ([3]; saturating concentrations) | inter-TMD FRET response reversal ([3]; saturating concentrations) | effect on inter-LBD FRET response to DCG-IV [1] | effect on LY48-induced inter-TMD FRET response ([3]; NAM versus LY48) | effect on Ro 64-induced inter-TMD FRET increase ([3]; applied after Ro 64) | inter-TMD FRET OFF kinetics [3] | Structure (SMILES) | effect on BINA-induced inter-TMD FRET increase ([3]; applied after BINA) |
| --- | --- | --- | --- | --- | --- | --- | --- | --- | --- | --- | --- | --- | --- | --- |
| did not alter the basal inter-LBD FRET | < 10% | 40–45% |  |  |  | minimal FRET changes |  |  | partial antagonism | blocked | partially reverse |  | N#Cc1cc(C2=Nc3ccc(Br)cc3NC(=O)C2)ccn1 [MNI 137] | reversed the BINA-induced FRET increase back to baseline |

| Structure (SMILES) | direct effect on inter-LBD FRET (no orthosteric agonist for modulators) [1] | higher order complexes with >3 bleaching steps in presence of drug [2] | two-step photobleaching events of SNAP-mGluR2-TMD in presence of drug [2] | EC50 ([3]; SNAP- and CLIP-mGluR2-TMD co-expressed, read-out: inter-TMD FRET increase EC50, co-expression of SNAP- and CLIP-mGluR2-TMD) | EC50 [3, 4] | EC50 ([3]; co-expression of dominant negative Gα protein, read-out: inter-TMD FRET increase EC50 with dominant negative G protein) | inter-TMD FRET response to drug alone [3] | inter-TMD FRET response onset ([3]; saturating concentrations) | inter-TMD FRET response reversal ([3]; saturating concentrations) | effect on inter-LBD FRET response to DCG-IV [1] | effect on LY48-induced inter-TMD FRET response ([3]; NAM versus LY48) | effect on Ro 64-induced inter-TMD FRET increase ([3]; applied after Ro 64) | inter-TMD FRET OFF kinetics [3] | effect on BINA-induced inter-TMD FRET increase ([3]; applied after BINA) |
| --- | --- | --- | --- | --- | --- | --- | --- | --- | --- | --- | --- | --- | --- | --- |
| COc1ccccc1Oc1ccc(N(Cc2cccnc2)S(=O)(=O)CC(F)(F)F)cc1 [LY48] | no effect on FRET level; also recorded: unable to directly induce LBD closure | < 10% | 40–45% | 900 ± 100 nM | 1200 ± 100 nM | 600 ± 40 nM | readily detectable FRET increase | 10 to 40 s | < 2 min |  |  |  |  |  |
| Clc1cccc(Cl)c1/C(=C/n1cncn1)OC1CCCCCC1 [Ro 64] | did not alter the basal inter-LBD FRET | < 10% | 40–45% |  | 2100 ± 200 nM |  | robust, dose-dependent inter-TMD FRET increases |  |  | partial antagonism |  |  | very slow OFF kinetics |  |
